Experimental data as given in US8519154B2, “Method for treatment of bronchial asthma” (Council of Scientific & Industrial Research, priority 2011, dated 2013).
pIC50: −log10 of the molar value.

What was measured:
PDE-4 = test: Phosphodiesterase 4 assay, [3H]cAMP SPA enzyme assay, enzyme preparation from rat heart; format: biochemical
Procedure: For phosphodiesterase (PDE-4) assay, enzyme preparations were performed from rat heart (Ko et al 2004, Biochemical Pharmacology 68:2087-2094). Heart was excised from anesthetized rat and transfer into normal saline solution. Heart weighing 687 mg was taken and homogenized in 2.5 volumes of homogenization buffer containing 20 mM Tris-Cl, 50 mM NaCl, 2 mM EDTA, 0.1 mM PMSF, […], protease inhibitors 1 μg/μl. The homogenate was centrifuged at 500×g for 5 minute at 4° C. Then sup was taken for further centrifuged at 40,000×g for 30 minute (ultra centrifugation). After centrifugation supernatant was collected for phosphodiesterase assay. Protein concentration was estimated and for each assay, 2.5 μg protein (PDE enzyme preparation) was used. All compounds tested for PDE 4 activity were dissolved in DMSO.
Phosphodiesterase 4 assay: Phosphodiesterase 4 assay was conducted with [^3H] cAMP SPA enzyme assay (GE Amersham, UK) using 2.5 μg enzyme preparation for each well. Into each well 60 μl water, 10 μl assay buffer supplied with the kit, 10 μl compound (inhibitor), 10 μl PDE enzyme or homogenizing buffer (blank) and […] radiolabel led cAMP ([^3H]cAMP, GE Amersham, UK) were added. To check activity of the enzyme without inhibitor (compound) 10 μl DMSO was added in place of inhibitor to a separate well. The reaction mixtures were incubated for […] at 30° C. The reaction was stopped by adding 50 μl SPA bead supplied with the kit. It was then mixed well and allowed to stand at room temperature for 20 min. Breakdown of cAMP in each tube was monitored by β counter. The reading in each tube was obtained in counts per minute (CPM). The reading of the blank tube (without enzyme) was subtracted from each tube to normalize the counts. The enzyme activity was calculated by considering the CPM reading without any inhibitor (compound) as 100.

mice [1] = test: Electric shock induced convulsions; format: in vivo, Swiss mice
Procedure: Convulsion were induced by a single electroshock (50 Hz in frequency, 0.5 ms pulse width, 50 mA current for 0.3 s) applied through bi-polar electrodes attached to the ear pinna on both side using a pulse generator (Ugo Basile, Italy). The convulsive activity (determined by loss of tonic extensor seizure) was recorded in control (untreated) and Compound I were treated (before electro-shock application) animals [Achliya, G S, Wadodkar, S G, Darle, A K., Evaluation of CNS activity of Bramhi Ghrita. Indian J. Pharmacol. 37 (2005) 33-36].
Anti-convulsant activity was measured by electric shock induced seizure. Five Swiss mice were used for one dose of drug. Convulsion were induced by a single electroshock (50 Hz in frequency, 0.5 ms pulse width, 50 mA current for 0.3 s) applied through bi-polar electrodes attached to the ear pinna on both side by a pulse generator (Ugo Basile, Italy) Test drug were administered orally 60 min before electroshock application, and convulsive activity was determined by loss of tonic extensor seizure.

[2] = system: OVA sensitized and challenged mice, lung sections; test: Histological analysis of lung inflammation in mouse model of asthma; format: in vivo; conditions: H&E lung sections
Procedure: To determine the effect of Compound I on airway inflammation, histopathological analysis of formalin fixed, paraffin embedded lung sections was performed. The excised lung portion was fixed in 10% buffered formalin. The fixed, paraffin embedded tissue were sectioned into 4 μm sections and stained with Hematoxylin & Eosin (H&E) to assess inflammation

mice [3] = test: Analgesic activity by hot plate method; format: in vivo
Procedure: Analgesic activity was carried out by Hot Plate method. The response time for paw licking or jumping on the heated plate of analgesiometer (55±1° C.). (Socrel, Ugo Basile, Italy) was taken as the reaction time. A comparison of reaction time (in seconds) between control (untreated) and Compound I treated mice was made for a group of 6 animals in each test group [Eddy, N B., Leimbach, D., Synthetic analgesics, II. Dithienylbutenyl- and dithienylbutylamines. J. Pharmacol. Exp. Ther. 107 (1953) 385-393].
The time for hind paw licking or jumping on the heated plate of analgesiometer (Socrel, ugo basile, Italy) was taken as the reaction time.

## COc1cc(C=O)cc2c1[nH]c1ccccc12 [Compound I, 1-methoxy-3-formyl-9H carbazole]
PDE-4; 0.1 μg/ml
  % of Inhibition: 1.4%
PDE-4; 1 μg/ml
  % of Inhibition: 34.7%
PDE-4; 10 μg/ml
  % of Inhibition: 73.1%
PDE-4; compound of natural origin (extraction from plants)
  pIC50: 4.70
PDE-4; compound of natural origin, compared with rolipram
  extent of inhibition of PDE 4 activity: comparable to known PDE 4 inhibitor, rolipram
PDE-4; synthetically prepared compound (chemical origin)
  pIC50: 7.30
Mice [1]; 12.5 mg/kg p.o.
  Convulsions Clonic: 5/5
  Convulsions Tonic: 5/5
  Mortality: 1/5
Mice [1]; 50 mg/kg p.o.
  Convulsions Clonic: 5/5
  Convulsions Tonic: 5/5
  Mortality: 0/5
Mice [1]; 100 mg/kg p.o.
  Convulsions Clonic: 5/5
  Convulsions Tonic: 5/5
  Mortality: 0/5
Mice [1]; 12.5, 25 and 50 mg/kg orally
  anti-convulsant activity: no anti-convulsant activity
[2]
  perivascular and peribronchial inflammation: reduced both perivascular and peribronchial inflammation in a dose dependent manner
Mice [3]; 12.5 mg/kg p.o., 0 hr
  Reaction time: 11.08 ± 1.60 s
Mice [3]; 12.5 mg/kg p.o., 1 hr
  Reaction time: 10.62 ± 1.64 s
Mice [3]; 25 mg/kg p.o., 0 hr
  Reaction time: 13.58 ± 2.15 s
Mice [3]; 25 mg/kg p.o., 1 hr
  Reaction time: 14.62 ± 4.67 s
Mice [3]; 50 mg/kg p.o., 0 hr
  Reaction time: 14.38 ± 1.87 s
Mice [3]; 50 mg/kg p.o., 1 hr
  Reaction time: 14.34 ± 1.07 s
Mice [3]; 12.5, 25 and 50 mg/kg orally, 55±1° C.
  change in the reaction time on a hot plate: did not show any significant change in the reaction time
